ChEMBL document CHEMBL1129063, “Design, synthesis, and biochemical evaluation of N-substituted maleimides as inhibitors of prostaglandin endoperoxide synthases” (J Med Chem, 1996)

The compounds below were run against Cyclooxygenase (Homo sapiens, UniProt P35354+P23219) (assay: Inhibitory activity against Prostaglandin G/H synthase).

| Compound | IC50 [µM] |
| --- | --- |
| O=C(O)c1ccc(CN2C(=O)C=CC2=O)cc1 | 27 |
| O=C(O)CCCCCCCCCCN1C(=O)C=CC1=O | 40 |
| Cc1ccccc1CN1C(=O)C=CC1=O | 50 |
| CC(=O)Oc1ccc(N2C(=O)C=CC2=O)cc1C(=O)O | 29 |
| O=C(O)CCCCCCCCCCCN1C(=O)C=CC1=O | 140 |
| CCCCCCCCCN1C(=O)C=CC1=O | 12 |
| O=C(O)CCCCCN1C(=O)C=CC1=O | > 800 |
| CC(=O)Oc1cc(N2C(=O)C=CC2=O)ccc1C(=O)O | > 200 |
| O=C(O)CCCCCCN1C(=O)C=CC1=O | 570 |
| CCCCCCCCCCN1C(=O)C=CC1=O | 14 |
| O=C(O)CCCCCCCCCN1C(=O)C=CC1=O | 37 |
| O=C(O)CCCCCCCCN1C(=O)C=CC1=O | 26 |
| O=C(O)c1ccccc1OCCN1C(=O)C=CC1=O | 250 |
